Test results taken from patent publication US12569534B2, “Therapeutic nanoparticles by coacervate complexation and their use for treating bacteria” (priority 2018, dated 2026).
{Cy5} = Cy5 fluorescent dye; d = 2'-deoxy (DNA); m = 2'-O-methyl

Test system: E. Coli ATCC 25922
Experiment: MIC and MBC of different treatments, Example 3
Assay type: cell-based
Procedure: Reference bacterial stains were purchased from ATCC. Clinical isolates of carbapenem-resistant bacteria were obtained from National Health Research Institutes (NHRI) and Tri-Service General Hospital (TSGH). MIC is defined as the lowest concentration of antibiotics required to inhibit the growth of bacteria. MBC is defined as the lowest concentration of antibiotics required to eradicate microorganisms. The MICs of CS and the CS NPs were determined using a broth microdilution method. Bacterial suspensions were adjusted to a turbidity of McFarland 0.5±0.05 and cultured overnight with different concentrations of CS or CS NPs. A control group without antimicrobial treatment was prepared as a reference. Following overnight incubation, solution turbidity was determined by visual inspection. Culture wells with no observable turbidity were further sub-cultured for MBC evaluation. Solutions from the clear wells were deposited onto an agar plate and cultured overnight to determine the MBCs.

Substance: ASOftsZ: antisense oligonucleotide of ftsZ DNA fragment; Cy5-mCmCmAmU-TG-GTT-CAA-A-mCmAmUmA, m_: 2′ O-methyl bases (antisense CCAUTGGTTCAAACAUA; sugars from the 5' end m4 d9 m4, 5' {Cy5}, backbone and methylation of C not given here)
- MBC: >2 µg/mL
- MIC: >2 µg/mL
